What was measured:
Format in all cases: binding
[1] = biological target: T1, Ran (RanGTP) in the snRNA export complex with CRM1, PHAX, CBC (Homo sapiens, UniProt P62826, Q69L); test: cryo-EM structure of the complex; conditions: Mg2+ present; Ran nucleotide site; complex with CRM1, phosphorylated PHAX, CBC and capped RNA
T1 construct: Ran Q69L as His-tag fusion from E. coli, loaded with GTP; His-CRM1; CK2-phosphorylated full-length PHAX; CBP80ΔNLS–CBP20; capped 14-nt RNA; with Exportin-1; Phosphorylated adapter RNA export protein

[2] = biological target: T2, CBC (CBP80ΔNLS–CBP20) (Homo sapiens, UniProt P52298); test: isothermal titration calorimetry
T2 construct: gene NCBP2; heterodimer; CBP80ΔNLS (lacks N-terminal 19 residues) from High Five insect cells; CBP20 as His-GST fusion from E. coli, tag cleaved by TEV
T2 sequence (P52298 2-156): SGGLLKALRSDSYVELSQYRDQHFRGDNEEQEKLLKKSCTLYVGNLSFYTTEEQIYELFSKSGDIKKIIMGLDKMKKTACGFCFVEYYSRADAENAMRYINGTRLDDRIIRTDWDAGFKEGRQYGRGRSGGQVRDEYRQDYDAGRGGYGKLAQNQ
T2 sequence (Q09161 20-790 partner): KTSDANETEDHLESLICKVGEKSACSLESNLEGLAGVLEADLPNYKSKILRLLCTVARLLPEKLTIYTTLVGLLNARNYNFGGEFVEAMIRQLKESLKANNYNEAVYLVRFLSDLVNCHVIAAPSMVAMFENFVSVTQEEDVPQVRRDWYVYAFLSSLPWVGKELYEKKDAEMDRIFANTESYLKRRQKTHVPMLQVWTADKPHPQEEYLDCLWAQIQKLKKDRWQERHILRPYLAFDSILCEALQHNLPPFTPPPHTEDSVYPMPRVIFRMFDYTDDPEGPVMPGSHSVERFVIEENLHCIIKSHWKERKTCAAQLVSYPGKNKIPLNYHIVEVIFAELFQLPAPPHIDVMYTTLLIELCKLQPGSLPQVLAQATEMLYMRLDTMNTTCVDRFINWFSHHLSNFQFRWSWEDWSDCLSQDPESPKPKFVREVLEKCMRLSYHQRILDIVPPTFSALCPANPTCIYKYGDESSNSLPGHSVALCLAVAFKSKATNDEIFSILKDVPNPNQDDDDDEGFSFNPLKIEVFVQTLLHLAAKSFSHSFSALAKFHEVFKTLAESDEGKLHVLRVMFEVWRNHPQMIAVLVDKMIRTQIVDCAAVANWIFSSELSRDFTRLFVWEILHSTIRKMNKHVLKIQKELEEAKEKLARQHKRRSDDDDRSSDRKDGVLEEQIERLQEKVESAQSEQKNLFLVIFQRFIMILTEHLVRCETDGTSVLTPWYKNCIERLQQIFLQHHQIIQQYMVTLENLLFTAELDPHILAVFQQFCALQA

[3] = biological target: T3, CBC in complex with PHAX^103–196 (Homo sapiens, UniProt P52298); test: isothermal titration calorimetry
T3 construct: gene NCBP2; CBC (CBP80ΔNLS lacking N-terminal 19 residues; CBP20, tag cleaved) plus PHAX residues 103-196 made as His-MBP fusion in E. coli, not phosphorylated; Phosphorylated adapter RNA export protein
T3 sequence (Q9H814 103-196 partner, one chain of several): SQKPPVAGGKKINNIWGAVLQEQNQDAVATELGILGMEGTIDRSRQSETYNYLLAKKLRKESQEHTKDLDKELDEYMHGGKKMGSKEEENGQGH

Kd [2]	Kd [3]	Structure (SMILES)	cryo-EM structure of the complex [1]
		Nc1nc2c(ncn2[C@@H]2O[C@H](COP(=O)(O)OP(=O)(O)OP(=O)(O)O)[C@@H](O)[C@H]2O)c(=O)[nH]1 [GTP]	the catalytic mutant of Ran (Q69L) bound to GTP
300 nM		C[n+]1cn([C@@H]2O[C@H](COP(=O)(O)OP(=O)(O)OP(=O)(O)O)[C@@H](O)[C@H]2O)c2nc(N)[nH]c(=O)c21 [m^7GTP]	
96 nM	100 nM	C[n+]1cn([C@@H]2O[C@H](COP(=O)(O)OP(=O)(O)OP(=O)(O)OC[C@H]3O[C@@H](n4cnc5c(=O)[nH]c(N)nc54)[C@H](O)[C@@H]3O)[C@@H](O)[C@H]2O)c2nc(N)[nH]c(=O)c21 [m^7GpppG]	

Source: article PMC12350170, “Structural basis for the synergistic assembly of the snRNA export complex” (Nature Structural & Molecular Biology, 2025)
